The values below come from patent US20080009418A1, “Selective Inhibitors” (Alchemia LTD., priority 2004, published 2008).

One assay deals with T1, Human μ-opioid (MOP) (Homo sapiens, UniProt P35372).
T1 construct: purchased Perkin Elmer Biosignal
Briefly: Radioligand binding, human μ-opioid (MOP) membranes, FlashPlate, [3H]-Naloxone. The conditions noted are these: compound at 10 μM, [3H]-Naloxone. The method, boiled down:
(§1)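 Cloned human receptor membranes were coated onto FlashPlate wells and incubated with radioligand and compound (added from a 0.5 mM DMSO daughter plate) for 1 hour at room temperature in the dark. Scintillation counting gave percent inhibition, with DMSO defining total and reference ligand defining non-specific binding.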

Another assay has as its target T2, Human Melanocortin (MC3) (Homo sapiens, UniProt P41968).
T2 construct: purchased Perkin Elmer Biosignal
Briefly: Radioligand binding, human melanocortin MC3 membranes, FlashPlate, [125I]-NDP-αMSH. The conditions noted are these: compound at 10 μM, [125I]-NDP-αMSH. The method, boiled down: as §1

The target of another assay is T3, Human melanocortin (MC5) (Homo sapiens, UniProt P33032).
T3 construct: purchased Perkin Elmer Biosignal
Briefly: Radioligand binding, human melanocortin MC5 membranes, FlashPlate, [125I]-NDP-αMSH. The conditions noted are these: compound at 10 μM, [125I]-NDP-αMSH. The method, boiled down:
as §1

For another assay, the target named is T4, Human δ-opioid (DOP) (Homo sapiens, UniProt P41143).
T4 construct: purchased Perkin Elmer Biosignal
Briefly: Radioligand binding, human δ-opioid (DOP) membranes, FlashPlate, [3H]-Bremazocine. The conditions noted are these: compound at 10 μM, [3H]-Bremazocine. The method in brief:
as §1

The target of a further assay is T5, Human neurokinin (NK1) (Homo sapiens, UniProt P25103).
T5 construct: purchased Perkin Elmer Biosignal
Briefly: Radioligand binding, human neurokinin NK1 membranes, filtration, [125I]-Substance P. The conditions noted are these: compound at 10 μM, [125I]-Substance P. The method in brief:
(§2)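 Percent inhibition of radioligand binding measured on recombinant human membranes: NK1 with [125I]-Substance P, KOP with [3H]-Diprenorphine. Incubation 1 h at room temperature, then harvest onto 0.3% PEI-soaked filters, cold Tris-HCl pH 7.4 washes and scintillation counting; non-specific binding from reference ligand wells.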

Assay [1] addresses T6, Human neuropeptide Y (NPY-Y1) (Homo sapiens, UniProt P25929).
T6 construct: purchased Perkin Elmer Biosignal
T6 sequence (P25929 1-384): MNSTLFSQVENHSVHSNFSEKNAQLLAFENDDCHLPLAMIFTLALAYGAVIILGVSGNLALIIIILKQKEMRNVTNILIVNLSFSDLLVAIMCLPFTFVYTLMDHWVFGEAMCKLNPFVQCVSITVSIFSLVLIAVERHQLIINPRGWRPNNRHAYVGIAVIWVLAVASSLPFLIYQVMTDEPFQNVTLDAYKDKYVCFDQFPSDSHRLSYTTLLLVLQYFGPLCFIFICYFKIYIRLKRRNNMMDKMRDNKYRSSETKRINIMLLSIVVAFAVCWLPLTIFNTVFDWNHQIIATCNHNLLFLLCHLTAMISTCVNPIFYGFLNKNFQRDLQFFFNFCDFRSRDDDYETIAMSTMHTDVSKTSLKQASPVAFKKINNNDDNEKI
Briefly: Radioligand binding, human neuropeptide Y NPY-Y1 membranes, FlashPlate, [125I]-PYY. The conditions noted are these: compound at 10 μM, [125I]-PYY. The method in brief:
as §1

The target in another assay is T7, Mouse urotensin (mUR2) (Mus musculus, UniProt Q8VIH9).
T7 construct: purchased Perkin Elmer Biosignal
T7 sequence (Q8VIH9 1-385): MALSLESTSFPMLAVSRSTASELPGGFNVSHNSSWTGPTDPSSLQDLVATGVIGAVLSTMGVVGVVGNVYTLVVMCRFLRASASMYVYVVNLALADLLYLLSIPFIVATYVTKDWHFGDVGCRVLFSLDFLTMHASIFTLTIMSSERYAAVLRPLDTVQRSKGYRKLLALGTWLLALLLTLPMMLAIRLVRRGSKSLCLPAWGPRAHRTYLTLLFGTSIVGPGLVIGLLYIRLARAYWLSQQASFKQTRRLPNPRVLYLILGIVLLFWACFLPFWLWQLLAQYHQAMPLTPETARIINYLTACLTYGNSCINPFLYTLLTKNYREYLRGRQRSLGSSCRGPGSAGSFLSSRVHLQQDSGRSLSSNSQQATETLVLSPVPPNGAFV
Briefly: Radioligand binding, mouse urotensin mUR2 membranes, FlashPlate, [125I]-Urotensin II. The note with it: compound at 10 μM, [125I]-Urotensin II. The method in brief:
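Cloned mouse urotensin (mUR2) receptor membranes from Perkin Elmer Biosignal were immobilized in FlashPlate microplates using a proprietary coating. Each well got 19.5 μl buffer, then 0.5 μl of DMSO, reference ligand, or compound. Adding 5 μl of [125I]-Urotensin II, diluted to 5× final concentration in binding buffer, started binding. Plates were sealed with TopSeal-A and incubated 1 hour at room temperature in the dark. Wells were counted for 30 seconds each on a TopCount after a 60-second delay, and percentage inhibition was calculated.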

For the next assay, the target named is T8, Human opioid (ORL1) (Homo sapiens, UniProt P41146).
T8 construct: purchased Perkin Elmer Biosignal
Briefly: Radioligand binding, human opioid ORL1 membranes, FlashPlate, [125I]-Nociceptin. The conditions noted are these: compound at 10 μM, [125I]-Nociceptin. The method in brief:
as §1

A further assay has as its target T9, Human κ-Opioid (KOP) (Homo sapiens, UniProt P41145).
T9 construct: purchased Perkin Elmer Biosignal
Briefly: Radioligand binding, human κ-opioid (KOP) membranes, filtration, [3H]-Diprenorphine. The note with it: compound at 10 μM, [3H]-Diprenorphine. The method, boiled down: as §2

For assay [2], the target named is T10, Human melanin-concentrating hormone (MCH1) (Homo sapiens, UniProt Q99705).
T10 construct: purchased Perkin Elmer Biosignal
Briefly: Radioligand binding, human melanin-concentrating hormone MCH1 membranes, FlashPlate, [125I]-S36057. The note with it: compound at 10 μM. The method in brief: as §1

The target in the next assay is T11, Human Melanocortin (MC4) (Homo sapiens, UniProt P32245).
T11 construct: purchased Perkin Elmer Biosignal
Briefly: Radioligand binding, human melanocortin MC4 membranes, FlashPlate, [125I]-NDP-αMSH. The note with it: compound at 10 μM, [125I]-NDP-αMSH. The method, boiled down: as §1

SMILES strings stand for the structures.

T11 sequence (P32245 whole entry): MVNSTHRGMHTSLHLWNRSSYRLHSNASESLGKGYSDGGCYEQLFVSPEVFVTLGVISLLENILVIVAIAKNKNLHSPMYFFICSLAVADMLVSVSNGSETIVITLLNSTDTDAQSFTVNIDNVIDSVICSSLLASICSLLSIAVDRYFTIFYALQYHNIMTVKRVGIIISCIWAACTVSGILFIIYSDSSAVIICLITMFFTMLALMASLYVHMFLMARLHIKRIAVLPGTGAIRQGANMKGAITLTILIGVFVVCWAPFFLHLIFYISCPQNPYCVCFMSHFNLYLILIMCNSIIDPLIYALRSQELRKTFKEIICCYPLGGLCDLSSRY
T4 sequence (P41143 whole entry): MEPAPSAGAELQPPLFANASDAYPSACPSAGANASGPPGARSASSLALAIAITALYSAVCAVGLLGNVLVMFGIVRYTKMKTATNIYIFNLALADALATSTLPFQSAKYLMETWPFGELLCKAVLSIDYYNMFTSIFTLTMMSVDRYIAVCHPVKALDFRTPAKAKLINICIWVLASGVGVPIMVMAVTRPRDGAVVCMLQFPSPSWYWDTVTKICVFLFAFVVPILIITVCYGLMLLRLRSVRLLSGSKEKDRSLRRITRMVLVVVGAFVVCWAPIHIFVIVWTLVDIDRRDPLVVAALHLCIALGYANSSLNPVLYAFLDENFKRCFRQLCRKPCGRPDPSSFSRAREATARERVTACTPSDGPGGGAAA
T3 sequence (P33032 whole entry): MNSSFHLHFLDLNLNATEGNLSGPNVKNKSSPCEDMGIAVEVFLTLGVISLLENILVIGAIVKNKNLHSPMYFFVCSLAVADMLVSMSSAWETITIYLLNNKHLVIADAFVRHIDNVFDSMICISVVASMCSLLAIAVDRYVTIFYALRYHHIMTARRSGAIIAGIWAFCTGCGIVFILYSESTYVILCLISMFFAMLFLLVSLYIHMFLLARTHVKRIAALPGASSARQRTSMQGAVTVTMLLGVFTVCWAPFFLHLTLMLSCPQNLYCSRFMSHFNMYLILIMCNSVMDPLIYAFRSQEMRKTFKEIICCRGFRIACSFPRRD
T9 sequence (P41145 whole entry): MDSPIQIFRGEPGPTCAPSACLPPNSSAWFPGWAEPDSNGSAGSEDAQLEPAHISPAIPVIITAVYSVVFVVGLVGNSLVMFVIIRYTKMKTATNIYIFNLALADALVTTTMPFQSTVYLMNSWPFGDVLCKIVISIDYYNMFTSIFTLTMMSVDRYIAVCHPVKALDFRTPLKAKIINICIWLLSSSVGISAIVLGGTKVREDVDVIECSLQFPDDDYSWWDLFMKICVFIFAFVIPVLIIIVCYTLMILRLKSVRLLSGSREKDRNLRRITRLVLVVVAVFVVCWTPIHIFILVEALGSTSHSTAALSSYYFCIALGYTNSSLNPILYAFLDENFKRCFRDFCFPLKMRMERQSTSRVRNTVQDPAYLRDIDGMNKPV
T1 sequence (P35372 whole entry): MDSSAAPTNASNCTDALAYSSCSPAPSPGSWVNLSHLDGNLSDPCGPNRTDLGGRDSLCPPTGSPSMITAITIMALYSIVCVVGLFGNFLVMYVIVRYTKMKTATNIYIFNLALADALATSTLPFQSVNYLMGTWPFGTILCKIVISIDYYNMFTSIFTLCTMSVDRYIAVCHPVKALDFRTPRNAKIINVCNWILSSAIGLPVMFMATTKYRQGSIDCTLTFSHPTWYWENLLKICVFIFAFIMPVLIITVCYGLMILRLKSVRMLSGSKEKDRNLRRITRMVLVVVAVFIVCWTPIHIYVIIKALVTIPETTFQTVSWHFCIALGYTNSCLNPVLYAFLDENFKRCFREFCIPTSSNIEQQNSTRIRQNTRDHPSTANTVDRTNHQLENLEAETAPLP
T8 sequence (P41146 whole entry): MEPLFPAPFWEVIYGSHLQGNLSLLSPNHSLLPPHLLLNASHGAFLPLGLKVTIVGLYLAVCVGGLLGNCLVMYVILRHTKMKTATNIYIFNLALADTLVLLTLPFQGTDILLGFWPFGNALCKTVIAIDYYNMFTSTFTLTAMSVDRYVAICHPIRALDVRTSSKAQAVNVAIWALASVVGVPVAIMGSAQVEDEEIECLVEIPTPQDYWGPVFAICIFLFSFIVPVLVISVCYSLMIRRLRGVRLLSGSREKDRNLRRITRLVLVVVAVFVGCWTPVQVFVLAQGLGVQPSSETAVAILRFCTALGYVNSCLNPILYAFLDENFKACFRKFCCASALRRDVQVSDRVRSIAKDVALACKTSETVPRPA
T10 sequence (Q99705 whole entry): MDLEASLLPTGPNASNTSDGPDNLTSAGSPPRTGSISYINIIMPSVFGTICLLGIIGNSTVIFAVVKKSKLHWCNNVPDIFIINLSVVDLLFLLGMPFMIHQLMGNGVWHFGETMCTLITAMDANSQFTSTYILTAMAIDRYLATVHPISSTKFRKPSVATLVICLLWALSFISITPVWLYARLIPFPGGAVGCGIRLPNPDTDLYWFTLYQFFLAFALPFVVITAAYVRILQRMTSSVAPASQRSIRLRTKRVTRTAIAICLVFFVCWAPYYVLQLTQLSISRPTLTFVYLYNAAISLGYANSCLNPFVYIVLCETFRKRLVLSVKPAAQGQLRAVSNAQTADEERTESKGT
T5 sequence (P25103 whole entry): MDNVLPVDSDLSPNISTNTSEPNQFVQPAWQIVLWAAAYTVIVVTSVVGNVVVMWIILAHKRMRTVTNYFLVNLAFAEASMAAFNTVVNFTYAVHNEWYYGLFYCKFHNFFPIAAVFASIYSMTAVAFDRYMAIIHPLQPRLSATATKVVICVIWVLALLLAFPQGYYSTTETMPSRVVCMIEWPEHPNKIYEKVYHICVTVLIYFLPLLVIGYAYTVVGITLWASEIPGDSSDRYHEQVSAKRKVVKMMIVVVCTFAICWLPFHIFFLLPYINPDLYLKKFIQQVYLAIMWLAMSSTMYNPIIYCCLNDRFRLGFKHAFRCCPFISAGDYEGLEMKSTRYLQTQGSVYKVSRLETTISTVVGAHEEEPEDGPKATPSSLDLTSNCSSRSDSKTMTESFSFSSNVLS
T2 sequence (P41968 whole entry): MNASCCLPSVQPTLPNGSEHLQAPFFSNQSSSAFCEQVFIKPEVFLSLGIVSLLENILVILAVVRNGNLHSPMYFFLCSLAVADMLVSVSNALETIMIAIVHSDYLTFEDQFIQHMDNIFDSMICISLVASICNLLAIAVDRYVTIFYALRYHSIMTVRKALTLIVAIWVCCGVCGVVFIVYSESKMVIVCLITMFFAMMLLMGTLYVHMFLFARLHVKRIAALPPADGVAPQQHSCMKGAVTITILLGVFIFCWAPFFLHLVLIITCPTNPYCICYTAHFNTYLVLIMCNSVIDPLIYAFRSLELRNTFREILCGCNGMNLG

On to `NCCC(=O)N[C@H]1C(OCc2ccc3ccccc3c2)O[C@H](COCc2ccccc2)[C@@H](O)[C@@H]1OCc1ccc2ccccc2c1` (some centres unmarked) [compound 444], for which the “A7: inhibition of radioligand binding” value on Human μ-opioid (MOP) (human MOP membranes, 10 µM) is listed as “− (“−” indicates less than 50% inhibition at 10 μM)”. In addition, on Human Melanocortin (MC3) (human MC3 membranes, 10 µM), the “A3: inhibition of radioligand binding” value was “− (“−” indicates less than 50% inhibition at 10 μM)”. Also, the “A5: inhibition of radioligand binding” value on Human melanocortin (MC5) (human MC5 membranes, 10 µM) was “− (“−” indicates less than 50% inhibition at 10 μM)”. Besides, on Human δ-opioid (DOP) (human DOP membranes), the “A1: inhibition of radioligand binding” value is listed as “− (“−” indicates less than 50% inhibition at 10 μM)”. Further, the “A8: inhibition of radioligand binding” value on Human neurokinin (NK1) (human NK1 membranes) is reported as “+ (“+” indicates greater than 50% inhibition at 10 μM)”. Besides, the “A9: inhibition of radioligand binding” value in assay [1] (human NPY-Y1 membranes) is recorded as “− (“−” indicates less than 50% inhibition at 10 μM)”. Also, the “A11: inhibition of radioligand binding” value on Mouse urotensin (mUR2) (mouse mUR2 membranes) is on record as “− (“−” indicates less than 50% inhibition at 10 μM)”. For the same molecule, the “A10: inhibition of radioligand binding” value on Human opioid (ORL1) (human ORL1 membranes, 10 µM) is “− (“−” indicates less than 50% inhibition at 10 μM)”. Further, the “A2: inhibition of radioligand binding” value on Human κ-Opioid (KOP) (human KOP membranes, 10 µM) is on record as “− (“−” indicates less than 50% inhibition at 10 μM)”. Besides, the “A6: inhibition of radioligand binding” value in assay [2] ([125I]-S36057, human MCH1 membranes, 10 µM) is recorded as “− (“−” indicates less than 50% inhibition at 10 μM)”. For the same molecule, at Human Melanocortin (MC4) (human MC4 membranes, 10 µM), the “A4: inhibition of radioligand binding” value is “− (“−” indicates less than 50% inhibition at 10 μM)”.

As for `NCCC(=O)NC1C(OCc2ccc(Cl)cc2)OC(COCc2ccc(Cl)cc2)C(O)C1OCc1ccc(Cl)cc1` (single isomer, unassigned) [compound 475], on Human μ-opioid (MOP) (human MOP membranes), the “A7: inhibition of radioligand binding” value is on record as “− (“−” indicates less than 50% inhibition at 10 μM)”. The “A3: inhibition of radioligand binding” value at Human Melanocortin (MC3) (human MC3 membranes) is “− (“−” indicates less than 50% inhibition at 10 μM)”. In addition, the “A5: inhibition of radioligand binding” value at Human melanocortin (MC5) (human MC5 membranes) is reported as “+ (“+” indicates greater than 50% inhibition at 10 μM)”. Further, the “A1: inhibition of radioligand binding” value at Human δ-opioid (DOP) (human DOP membranes) is listed as “− (“−” indicates less than 50% inhibition at 10 μM)”. For the same molecule, on Human neurokinin (NK1) (human NK1 membranes), the “A8: inhibition of radioligand binding” value is “+ (“+” indicates greater than 50% inhibition at 10 μM)”. The “A9: inhibition of radioligand binding” value in assay [1] (human NPY-Y1 membranes) is “− (“−” indicates less than 50% inhibition at 10 μM)”. The “A11: inhibition of radioligand binding” value on Mouse urotensin (mUR2) (mouse mUR2 membranes) is given as “− (“−” indicates less than 50% inhibition at 10 μM)”. The “A10: inhibition of radioligand binding” value at Human opioid (ORL1) (human ORL1 membranes) is “− (“−” indicates less than 50% inhibition at 10 μM)”. The “A2: inhibition of radioligand binding” value on Human κ-Opioid (KOP) (human KOP membranes) was “− (“−” indicates less than 50% inhibition at 10 μM)”. Moreover, the “A6: inhibition of radioligand binding” value in assay [2] ([125I]-S36057, human MCH1 membranes) is on record as “− (“−” indicates less than 50% inhibition at 10 μM)”. At Human Melanocortin (MC4) (human MC4 membranes), the “A4: inhibition of radioligand binding” value is recorded as “+ (“+” indicates greater than 50% inhibition at 10 μM)”.

On to `CSC1O[C@H](COCc2ccc3ccccc3c2)[C@@H](O)[C@@H](OCc2ccc(-c3ccccc3)cc2)[C@H]1NC(=O)CCN` (some centres unmarked) [compound 297], for which the “A7: inhibition of radioligand binding, human μ-opioid (MOP)” value at Human μ-opioid (MOP) was “− (“−” indicates less than 50% inhibition at 10 μM)”. In addition, the “A3: inhibition of radioligand binding, human melanocortin (MC3)” value at Human Melanocortin (MC3) is “− (“−” indicates less than 50% inhibition at 10 μM)”. Further, the “A5: inhibition of radioligand binding, human melanocortin (MC5)” value at Human melanocortin (MC5) was “− (“−” indicates less than 50% inhibition at 10 μM)”. The “A1: inhibition of radioligand binding, human δ-opioid (DOP)” value on Human δ-opioid (DOP) was “− (“−” indicates less than 50% inhibition at 10 μM)”. For the same molecule, the “A8: inhibition of radioligand binding, human neurokinin (NK1)” value at Human neurokinin (NK1) was “+ (“+” indicates greater than 50% inhibition at 10 μM)”. Besides, the “A9: inhibition of radioligand binding, human neuropeptide Y (NPY-Y1)” value in assay [1] was “− (“−” indicates less than 50% inhibition at 10 μM)”. The “A11: inhibition of radioligand binding, mouse urotensin (mUR2)” value at Mouse urotensin (mUR2) is listed as “− (“−” indicates less than 50% inhibition at 10 μM)”. Moreover, at Human opioid (ORL1), the “A10: inhibition of radioligand binding, human opioid (ORL1)” value is on record as “− (“−” indicates less than 50% inhibition at 10 μM)”. For the same molecule, at Human κ-Opioid (KOP), the “A2: inhibition of radioligand binding, human κ-opioid (KOP)” value was “− (“−” indicates less than 50% inhibition at 10 μM)”. Also, the “A6: inhibition of radioligand binding, human melanin-concentrating hormone (MCH1)” value in assay [2] ([125I]-S36057) is reported as “− (“−” indicates less than 50% inhibition at 10 μM)”. Moreover, the “A4: inhibition of radioligand binding, human melanocortin (MC4)” value on Human Melanocortin (MC4) is “− (“−” indicates less than 50% inhibition at 10 μM)”.

In the case of `COCC1OC(OCCc2ccccc2)C(NC(=O)CN)C(OCc2ccc(-c3ccccc3)cc2)C1O` (centres unmarked) [compound 224], the “A7: inhibition of radioligand binding” value on Human μ-opioid (MOP) (FlashPlate) is “− (“−” indicates less than 50% inhibition at 10 μM)”. For the same molecule, the “A3: inhibition of radioligand binding” value at Human Melanocortin (MC3) (FlashPlate) is recorded as “− (“−” indicates less than 50% inhibition at 10 μM)”. In addition, the “A5: inhibition of radioligand binding” value at Human melanocortin (MC5) (FlashPlate) was “− (“−” indicates less than 50% inhibition at 10 μM)”. For the same molecule, the “A1: inhibition of radioligand binding” value at Human δ-opioid (DOP) (FlashPlate) was “− (“−” indicates less than 50% inhibition at 10 μM)”. For the same molecule, on Human neurokinin (NK1) (filtration), the “A8: inhibition of radioligand binding” value is listed as “+ (“+” indicates greater than 50% inhibition at 10 μM)”. Further, the “A9: inhibition of radioligand binding” value in assay [1] (FlashPlate) is recorded as “− (“−” indicates less than 50% inhibition at 10 μM)”. Further, the “A11: inhibition of radioligand binding” value at Mouse urotensin (mUR2) (FlashPlate) was “− (“−” indicates less than 50% inhibition at 10 μM)”. Further, the “A10: inhibition of radioligand binding” value on Human opioid (ORL1) (FlashPlate) is given as “− (“−” indicates less than 50% inhibition at 10 μM)”. Moreover, the “A2: inhibition of radioligand binding” value on Human κ-Opioid (KOP) (filtration) is recorded as “− (“−” indicates less than 50% inhibition at 10 μM)”. The “A6: inhibition of radioligand binding” value in assay [2] ([125I]-S36057, FlashPlate) is “− (“−” indicates less than 50% inhibition at 10 μM)”. Further, the “A4: inhibition of radioligand binding” value at Human Melanocortin (MC4) (FlashPlate) is reported as “− (“−” indicates less than 50% inhibition at 10 μM)”.
